Consider 5 compounds from publication PMC11887051, “Discovery of ONO-2920632 (VU6011887): A Highly Selective and CNS Penetrant TREK-2 (TWIK-Related K+ Channel 2) Preferring Activator In Vivo Tool Compound” (ACS Chemical Neuroscience, 2025).

One may read the Kp as the ratio of the level in a tissue or fluid to that in plasma or blood.

The nature of data set [1]: rat predicted hepatic clearance (hepatic microsomes). Format: in vitro ADME. The procedure:
(§1) Intrinsic clearance: Human or rat hepatic microsomes (0.5 mg/mL) and 1 µM test compound were incubated in 100 mM potassium phosphate pH 7.4 buffer with 3 mM MgCl2 at 37 °C with constant shaking. After a 5 min preincubation, the reaction was initiated by the addition of NADPH (1 mM). At selected time intervals (0, 3, 7, 15, 25, and 45 min), aliquots were taken and subsequently placed into a 96-well plate containing cold acetonitrile with internal standard (50 ng/mL carbamazepine). Plates were then centrifuged at 3000 rcf (4 °C) for 10 min, and the supernatant was transferred to a separate 96-well plate and diluted 1:1 with water for LC/MS/MS analysis. The in vitro half-life ( 1/2, min, Eq. 1), intrinsic clearance (CLint, mL/min/kg, Eq. 2), and subsequent predicted hepatic clearance (CLhep, mL/min/kg, Eq. 3) was determined employing the […]
(§2) where k represents the slope from linear regression analysis of the natural log percent remaining of a test compound as a function of incubation time […]
(§3) (2) CLint = in vitroT1/2 x mg microsomes x gram liver x kg body wt ascale-up factors: of 20 (human) or 45 (rat) […]
(§4) where Qh (hepatic blood flow, mL/min/kg) is 21 (human) or 70 (rat).
(§5) LC/MS/MS Bioanalysis of Samples from Plasma Protein Binding and Intrinsic Clearance […]
(§6) Samples were analyzed on a Thermo Electron TSQ Quantum Ultra triple quad mass spectrometer (San Jose, CA) via electrospray ionization (ESI) with two Themo Electron Accella pumps (San Jose, CA), and a Leap Technologies CTC PAL autosampler (Carrboro, NC). Analytes were separated by gradient elution on a dual column system with two Thermo Hypersil Gold (2.1 x 30 mm, 1.9 µm) columns (San Jose, CA) thermostated at 40 °C. HPLC mobile phase A was 0.1% formic acid in water and mobile phase B was 0.1% formic acid in acetonitrile. The gradient started […]
for 0.2 min; returned to 10% B in 0.1 min. The total run time was 1.3 min and the HPLC flow rate was 0.8 mL/min. While pump 1 ran the gradient method, pump 2 equilibrated the alternate column isocratically at 10% B. Compound optimization, data collection, and processing was performed using Thermo Electron's QuickQuan software (v2.3) and Xcalibur (v2.0.7 SP1).

A short description of data set [2]: rat plasma:brain level study (Kp, Kp,uu). Format: in vivo. The following applies: male, Sprague-Dawley, brain and plasma; for Kp at 2 h / Kp uu at 2 h: oral rat plasma:brain level study, 2 h after 3 mg/kg PO. The procedure:
In vivo DMPK experimental:
Determination of brain to plasma ratio:
All animal study procedures were approved by the Institutional Animal Care and Use Committee and were conducted in accordance with the National Institutes of Health regulations of animal care covered in Principles of Laboratory Animal Care (National Institutes of Health). All rats were fasted overnight prior to testing. […]
At 15 min post dosing, blood sample was collected into chilled, K2EDTA anticoagulant-fortified tube and immediately placed on wet ice. The blood sample was then centrifuged (1700 rcf, 5 minutes, 4 °C) to obtain plasma sample. At the same post-administration time point, whole brain sample was obtained by rapid dissection, rinsed with PBS, and immediately frozen in individual tissue collection box (dry ice). All brain and plasma samples were stored at -80 °C until […]
Sample Analysis: Concentrations in plasma and brain homogenates were quantified by liquid chromatography tandem mass spectrometry (LC-MS/MS). Whole brains were homogenized in 3 mL of 70:30 IPA:water in a mini bead beater for 3 min, and centrifuged at 3,500 g for 5 min. 5 uL of the supernatant was diluted in 15 uL of blank plasma for quantification of the analytes. Plasma samples were centrifuged at 3,500 g for 5 min. A standard curve was generated by diluting the analytes DMSO stocks with blank plasma to obtain a final concentration of 10,000 ng/ml followed by a serial dilution down to 0.5 ng/ml. Quality controls were generated by a serial dilution of the 5,000 ng/ml standard curve solution in blank plasma to obtain 3 concentrations of 500, 50, and 5 ng/ml. 20 uL of brain diluted in plasma, plasma, blank plasma, standard curve and QC samples were loaded in a V-bottom 96-well plate. 120 uL of acetonitrile containing 0.05 uM carbamazepine (internal standard) was added to each well and the plate was centrifuged at 3,500 g for 5 min. 60 uL of the supernatant of each well (protein free) was transferred to a new 96-well plate containing 60 uL of water. The plates were sealed for analysis by LC-MS/MS.
Plasma and brain tissue samples originating from in vivo studies were analyzed by electrospray ionization using an AB Sciex Q-TRAP 5500 (Foster City, CA) that was coupled to a Shimadzu LC-20AD pump (Columbia, MD) and a Leap Technologies CTC PAL auto-sampler (Carrboro, NC). Analytes were separated by gradient elution using a C18 column (3 x 50 mm, 3 mm; Fortis Technologies Ltd, Cheshire, UK) that was thermostated at 40 °C. HPLC mobile phase A was 0.1% formic acid in water (pH unadjusted); mobile phase B was 0.1% formic acid in acetonitrile (pH […]
min, with an isocratic hold for 0.5 min, before transitioning to 10% B over 0.05 min. The column was re-equilibrated (1 min) before the next sample injection. The total run time was 2.55 min, and the HPLC flow rate was 0.5 ml/min. The source temperature was set at 500 °C, and mass spectral analyses were performed using a Turbo-Ion spray source in positive ionization mode (5.0-kV spray voltage) and using multiple-reaction monitoring of transitions specific for the analytes. All data were analyzed using AB Sciex Analyst 1.5.1 software.
Brain plasma concentration ratio (Kp) was calculated by dividing brain concentration by plasma concentration for each animal. Unbound brain to unbound plasma concentration ratio (Kp,uu) is calculated using the following formula: Kp,uu = (Brain ng/g x brain fu)/(plasma ng/ml x plasma fu).
For determination of the plasma concentration-time profile, compounds were formulated in methyl cellulose and administered as a 3 mg/kg PO dose to male C57BL/6 mouse or SD rat (n = 2). For the same determination, compounds were formulated in HP-β-CD and administered as a 0.1 mg/kg IV dose to male beagle dog (n = 2).
Plasma samples originating from in vivo studies were analyzed by electrospray ionization using a Q-TRAP 5500 (AB Sciex) that was coupled to a Prominence UFLC XR (Shimadzu Corporation). […]

Data set [3] can be described thus: mouse predicted hepatic clearance. Format: in vitro ADME. The procedure:
as §1, §2, §3, §4, §5, §6
for 0.2 min; returned to 10% B in 0.1 min. The total run time was 1.3 min and the HPLC flow rate was 0.8 mL/min. […]

The mark [4] stands for this setting: intravenous, 0.2 mg/kg, rat cassette PK study.

Turning to `CS(=O)(=O)Nc1ccc(C(=O)NCc2ccc(Cl)cc2Cl)cc1` [Compound 13], in data set [1], the “rat CLhep (predicted hepatic clearance)” value was 17.4 mL/min/kg. Besides, in data set [2], the Kp at 2 h came out at 0.26 and the Kp uu at 2 h was 0.15.
For the compound `O=C(NCc1ccc(Br)cc1Cl)c1ccc(-c2ncn[nH]2)cc1` [Compound 14a], in data set [2] (setting [4]), the partition ratio (Kp) at 15 min was found to be 0.2 and the Kp uu at 15 min was 0.36. In data set [3], the “mouse CLhep (predicted hepatic clearance)” value is 33.0 mL/min/kg.
Take `Cc1cc(OC(F)(F)F)ccc1CNC(=O)c1ccc2ncnn2c1` [Compound 19a]: the “rat CLhep (predicted hepatic clearance)” value in data set [1] was 5.7 mL/min/kg. In addition, in data set [2], the Kp at 2 h turned out to be 0.5 and the Kp uu at 2 h is 0.2. In addition, in data set [3], the “mouse CLhep (predicted hepatic clearance)” value is on record as 30.5 mL/min/kg.
The corresponding values for `O=C(NCc1ccc(OC(F)(F)F)cc1F)c1ccc2ncnn2c1` [Compound 19b] are 2.9 mL/min/kg, 0.37, 0.38 and 17.8 mL/min/kg.
In data set [2] (rat, dosing not given), `O=C(NCc1ccc(OC(F)(F)F)cc1Cl)c1ccc2nncn2c1` [Compound 20] showed a Kp uu of 0.078.
